# Reference: patent publication US4892871A, “Azido-substituted octopamine agonists and the use thereof to control invertebrate pests” (The General Hospital Corporation, priority 1988, dated 1990)
# Where two headings read alike, the source gives them in different places.
# What was measured:
# [1] = system: Light Organ Adenylate Cyclase; test: Antagonist inhibition of agonist-stimulated light organ adenylate cyclase; format: biochemical, firefly; conditions: for inhibition of compound IV stimulation of adenylate cyclase (in words): stimulation by compound IV; for Ki: read-out: Calculated Ki
# adenylate cyclase = conditions: cited from earlier work
# octopamine receptor [2] = test: In vitro octopamine agonist activity in Manduca; format: biochemical
# Excerpt: (§1) However, use of formamidines as pest controlling agents gives rise to certain problems, including the fact that the aniline breakdown products are carcinogenic. Moreover, a further problem is that the range of activity of these compounds is limited to a relatively few insect species. Matsumura, F., et al.. Environ. Health Perspect. 14: 71-82 (1976). […] Consistent with this in vitro activity, the formamidines are toxic in Manduca but not in the cockroach.
# octopamine receptor [3] = test: In vitro octopamine agonist activity in the cockroach; format: biochemical
# Excerpt: as §1
# [4] = system: octopamine receptor protein(s); test: SDS-polyacrylamide gel autoradiogram of light organ membrane proteins photolabeled with VIII; format: binding, firefly
# [5] = system: intact firefly light organ; test: Light emission after injection into isolated firefly tails; format: in vivo
# Method: In the second verification procedure, a bioassay was conducted which measured the effect of tritiated VIII on eliciting light emission when injected into isolated firefly tails.
# Manduca larvae = test: Antifeeding activity, Manduca larvae on sprayed tomato leaves; format: in vivo; conditions: percentage of leaf area remaining after 72 hours, dim light
# octopamine receptors [6] = test: Irreversible activation of adenylate cyclase after photolysis of firefly light organ membranes; format: biochemical; conditions: photolyzed, washed
# Excerpt: When exposed to ultraviolet light in these wavelengths, the N3 azido group on the para-position is photolyzed to yield free N2 and a […] covalently with a number of protein sites, including areas with double bonds, amino groups and carboxylic acids. If compound IV is occupying an octopamine receptor at the time of photolysis, then the ligand will bind to a site on or near the receptor protein. […] To determine this, a series of photolysis experiments were performed in which firefly light organ membranes were preincubated with or without compound IV and then photolyzed. Next, the membranes were extensively washed to remove all free ligand and any ligand that was not covalently bound. Following this, adenylate cyclase activity was assayed. […] Presumably, the excess octopamine displaced compound IV so that, when the membranes were later photolyzed, octopamine (and not compound IV) was occupying the receptor. Subsequently, during washing, the octopamine was removed so that the receptor returned to its unstimulated state.
# [7] = system: octopamine-sensitive adenylate cyclase; test: Activation of adenylate cyclase in firefly light organ membrane (broken cell) preparations; format: biochemical, Photinus pyralis; conditions: for Ka (concentration necessary for half-maximal activation of cyclase activity): firefly light organ membranes, reversible conditions
# Method: The question of whether a given azido-substituted compound within the scope of the invention is an octopamine agonist can be readily answered by measuring adenylate cyclase activity of the octopamine-sensitive adenylate cyclase present in broken cell preparations of the firefly light organ. […] Specimens of Photinus pyralis are prepared by opening their tail sections, cleaning them, removing the light organs, and homogenizing the cyclase-containing fraction. Adenylate cyclase activity is measured in appropriate buffer-containing ATP, cofactors, and the compound to be tested. Normally, the solution mixture contains a phosphodiesterase inhibitor such as theophylline, and the assay is designed to provide linear measurements with respect to time and enzyme concentration. If necessary, the compounds to be tested are initially solubilized and appropriate solvent controls are run in parallel. The enzyme reaction is initiated by addition of ATP, stopped by heating, and centrifuged. Cyclic AMP can be measured by any test which indicates the presence thereof, preferably by the protein binding assay of Brown et al. (Advances in Cyclic Nucleotide Research 2:25-40 (1972)). The determination of the constant Ka, which is the concentration of the azido-substituted agonist necessary for half-maximal activation of cyclase activity, is carried out by measuring cyclase activity in the preparation, and plotting the activity (above control activity) versus the semilogarithm of the particular agonist concentration. This is done for a series of increasing concentrations until maximal activity (Vmax) is reached. Ka^(Azido) is then calculated from the graph as the agonist concentration required for one-half of Vmax. Ka^(Azido) is compared with the constant (Ka^oct) determined in an analogous way using ±p-octopamine as the agonist. The ratio Ka^oct /ka^(Azido) is then an indication of whether a particular azido-substituted agonist (Azido) is more (ratio greater than 1) or less (ratio smaller than 1) active than (±)-p-octopamine (oct). […]
# octopamine receptor [8] = test: Reversible binding of compound VIII to light organ membranes (filtration); parameters: species or system firefly
# Excerpt: The low affinity of octopamine for its receptor (Ka =30 micromolar) results in a half-time of dissociation of considerably less than 0.1 second. This precludes the use of labeled octopamine as a receptor ligand since the time required for the separation of free from bound ligand during a filtration assay is several seconds. […] In other words, following washing, enough ligand will still be on the receptor to allow estimation of the receptor's binding constant for compound IV. (Because there will still be significant loss of label during filtration, one cannot use this type of assay to estimate total receptor number).
# octopamine receptors [9] = test: Irreversible (UV) binding of compound VIII to firefly light organ membranes and displacement; conditions: for displacement of irreversible VIII binding (in words): other experiments, nonoctopaminergic compounds
# Method: In these experiments, membranes were preincubated with the probe for under various conditions and then the mixture was photolyzed in quartz microcuvettes using a UV-C germicidal lamp. […] To determine whether the binding was specific, various displacing agents were added during the preincubation with tritiated IV (VIII), and the mixture then photolyzed.
# octopamine receptors [10] = test: Autoradiography of intact isolated firefly light organs labeled with VIII
# Method: Because compound VIII binds irreversibly, it should have potential as an anatomic probe to […] localize octopamine receptors at the light microscopic level. To determine if this is feasible, some preliminary studies were conducted using intact isolated firefly light organs. The lanterns were first preincubated with VIII in dim light and then exposed either to no light or to intense UV. Following this step, the lanterns were extensively washed, then slide mounted, dehydrated, and exposed to tritium-sensitive X-ray film. […] In the absence of UV light, there was no labeling. Localization of octopamine receptors, particularly in the nervous system, should aid in an understanding of how octopamine exerts its behavioral effects in insects.
compound,measurement,setting,value
"CN1CCC(=C2c3ccccc3C=Cc3ccccc32)CC1 [Cyproheptadine, cyproheptadine]",inhibition of compound IV stimulation of adenylate cyclase (in words),[1],inhibited
"CNC=Nc1ccc(Cl)cc1C [DCDM, N-demethylchlordimeform]",agonist character in adenylate cyclase stimulation,adenylate cyclase,partial agonist
same,potency relative to octopamine in adenylate cyclase stimulation,adenylate cyclase,about six
"Cc1cc(Cl)ccc1N=CN [DDCDM, didemethylchlordimeform]",agonist character,octopamine receptor [2],full agonist
same,potency relative to octopamine,octopamine receptor [2],20 fold
same,agonist character,octopamine receptor [3],very weak and partial agonist
"CN1CCN2c3ccccc3Cc3ccccc3C2C1 (centres unmarked) [Mianserin, mianserin]",inhibition of compound IV stimulation of adenylate cyclase (in words),[1],inhibited
same,"effect on VIII labeling of the protein peak at MW 74,000",[4]; excess antagonist present during photolysis,completely blocked
"Cc1ccc(N(CC2=NCCN2)c2cccc(O)c2)cc1 [Phentolamine, phentolamine]",Ki,[1]; inhibiting stimulation by DCDM (a formamidine),18 µM
same,Ki,[1]; inhibiting stimulation by compound IV,20 µM
same,Ki,[1]; inhibiting stimulation by octopamine (OCT),46 µM
same,inhibition of compound IV stimulation of adenylate cyclase (in words),[1],inhibited
"CC(C)NCC(O)COc1cccc2ccccc12 (centres unmarked) [Propranolol, propranolol]",inhibition of compound IV stimulation of adenylate cyclase (in words),[1],less potent
"CCc1cc(N=[N+]=[N-])cc(CC)c1N=C1NCCN1 [compound IV, (4-azido-2,6-diethylphenyl)imino-2-imidazoline]",potency relative to octopamine in stimulating light emission,[5]; injected into isolated firefly tails,about 15 fold
same,potency relative to octopamine in inhibiting feeding,Manduca larvae,about 10 fold
same,increase in adenylate cyclase activity after prior photolysis and washing,octopamine receptors [6]; membranes preincubated with compound,3 fold
"[3H]c1c(CC)c(N=C2NCCN2)c(CC)c([3H])c1N=[N+]=[N-] [compound VIII, 2-(4-azido-2,6-diethyl-3,5-ditritiophenyl)imino-2-imidazoline]",Ka (concentration necessary for half-maximal activation of cyclase activity),[7],about 0.5 micromolar
same,adenylate cyclase activity profile compared with unlabeled IV,[7]; light organ membranes,virtually identical
same,light response compared with genuine unlabeled compound,[5]; injection of 0.5 nmoles into isolated firefly tails,identical
same,concentration at which specific binding saturates,octopamine receptor [8]; specific binding = absence minus presence of 1000-fold excess mianserin,about 2 micromolar
same,Kd,"octopamine receptor [8]; specific binding, light organ membranes, read-out: concentration at which 50% binding occurs",~0.8 µM
same,increase in amount of label permanently bound on exposure to UV light,octopamine receptors [9]; photolyzed vs no UV,14 fold
same,labeling of the lantern,octopamine receptors [10]; absence of UV light,no labeling
same,labeling of the lantern,octopamine receptors [10]; exposed to intense UV,marked labeling
same,proteins labeled on gel,[4]; absence of UV radiation (lane C),no proteins were labeled
same,proteins labeled on gel,[4]; photolyzed with UV (lane A),Four major labeled peaks
NCCc1ccc(O)c(O)c1 [dopamine],displacement of irreversible VIII binding (in words),octopamine receptors [9],not displaced
NCCc1c[nH]cn1 [histamine],displacement of irreversible VIII binding (in words),octopamine receptors [9],not displaced
NC[C@H](O)c1ccc(O)c(O)c1 [norepinephrine],displacement of irreversible VIII binding (in words),octopamine receptors [9],not displaced
NCC(O)c1ccc(O)cc1 (centres unmarked) [octopamine],Ka (concentration necessary for half-maximal activation of cyclase activity),[7],30 µM
same,irreversible activation after preincubation with compound alone,octopamine receptors [6],failed to cause any irreversible activation
NCCc1c[nH]c2ccc(O)cc12 [serotonin],displacement of irreversible VIII binding (in words),octopamine receptors [9],not displaced
